Measured values reported in paper PMC9917443 (eLife, 2023).

Columns and labels:
mGlu5 receptors = experiment: Ca^2+ mobilization assay (Calcium 6) in HEK293T cells expressing mGlu5; format: cell-based; conditions: 1 and 10 µM
GB1a/2 receptors [1] = target: T1, GB1a/2 receptors (Homo sapiens, UniProt O75899+Q9UBS5); experiment: BRET assay of G protein activation (Gαo-RLuc / Venus-Gγ2) in HEK293T cells; format: cell-based; parameters: Flag (N); expressed in transfected cells; host or cells: HEK293T cells stably expressing chimeric Gαqi; conditions: GABA or CGP54626, 10 μM
T1 sequence (Q9UBS5 15-961 limits assumed): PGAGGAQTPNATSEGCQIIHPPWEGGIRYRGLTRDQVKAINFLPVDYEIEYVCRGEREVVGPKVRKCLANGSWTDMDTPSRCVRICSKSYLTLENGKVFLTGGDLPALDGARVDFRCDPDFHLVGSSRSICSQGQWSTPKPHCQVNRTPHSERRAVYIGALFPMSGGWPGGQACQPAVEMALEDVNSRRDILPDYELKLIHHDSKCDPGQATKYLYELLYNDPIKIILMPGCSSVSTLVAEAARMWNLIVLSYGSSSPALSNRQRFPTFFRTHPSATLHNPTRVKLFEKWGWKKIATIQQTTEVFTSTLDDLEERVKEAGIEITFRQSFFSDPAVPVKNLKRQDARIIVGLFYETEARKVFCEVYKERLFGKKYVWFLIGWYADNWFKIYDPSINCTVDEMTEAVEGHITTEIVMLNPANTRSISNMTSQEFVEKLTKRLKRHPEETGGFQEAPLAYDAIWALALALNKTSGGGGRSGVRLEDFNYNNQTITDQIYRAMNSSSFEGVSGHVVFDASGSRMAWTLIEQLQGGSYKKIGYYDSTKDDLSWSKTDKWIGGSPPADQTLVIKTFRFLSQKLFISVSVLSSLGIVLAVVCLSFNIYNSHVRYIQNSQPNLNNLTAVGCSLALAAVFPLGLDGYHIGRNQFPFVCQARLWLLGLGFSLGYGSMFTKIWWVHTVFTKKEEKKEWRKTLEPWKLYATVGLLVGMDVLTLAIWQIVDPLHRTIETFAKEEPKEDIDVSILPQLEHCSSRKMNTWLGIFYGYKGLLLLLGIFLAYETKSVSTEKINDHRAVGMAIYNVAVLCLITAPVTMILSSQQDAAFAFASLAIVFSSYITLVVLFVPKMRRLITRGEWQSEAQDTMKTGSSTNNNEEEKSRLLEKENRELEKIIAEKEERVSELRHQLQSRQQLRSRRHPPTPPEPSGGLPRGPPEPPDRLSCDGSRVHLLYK
T1 sequence (O75899 42-941 partner): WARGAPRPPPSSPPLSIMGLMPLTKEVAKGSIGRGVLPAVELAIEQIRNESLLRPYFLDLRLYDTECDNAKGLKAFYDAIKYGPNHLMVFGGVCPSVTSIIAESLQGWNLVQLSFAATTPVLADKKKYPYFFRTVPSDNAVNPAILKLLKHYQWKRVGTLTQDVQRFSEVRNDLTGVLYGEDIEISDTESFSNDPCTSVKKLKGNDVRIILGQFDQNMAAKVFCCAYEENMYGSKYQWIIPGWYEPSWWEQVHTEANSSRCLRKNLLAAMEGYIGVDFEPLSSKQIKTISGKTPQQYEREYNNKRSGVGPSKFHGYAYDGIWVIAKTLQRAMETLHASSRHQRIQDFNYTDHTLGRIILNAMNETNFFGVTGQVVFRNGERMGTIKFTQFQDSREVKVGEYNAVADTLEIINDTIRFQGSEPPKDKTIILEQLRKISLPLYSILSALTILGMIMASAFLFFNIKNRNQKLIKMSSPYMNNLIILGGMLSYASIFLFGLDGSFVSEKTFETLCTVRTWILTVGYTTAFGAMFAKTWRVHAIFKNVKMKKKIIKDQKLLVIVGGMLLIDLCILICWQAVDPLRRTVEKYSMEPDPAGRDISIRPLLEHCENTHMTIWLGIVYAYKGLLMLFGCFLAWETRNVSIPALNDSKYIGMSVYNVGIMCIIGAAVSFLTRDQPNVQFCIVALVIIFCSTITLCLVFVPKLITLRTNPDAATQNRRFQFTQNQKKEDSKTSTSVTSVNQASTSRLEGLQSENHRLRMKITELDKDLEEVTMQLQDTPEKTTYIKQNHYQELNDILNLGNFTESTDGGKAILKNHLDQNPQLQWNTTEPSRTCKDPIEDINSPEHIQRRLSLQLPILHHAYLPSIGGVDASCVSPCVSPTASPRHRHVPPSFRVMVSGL
Description: We directly tested whether APP17 influences G protein activation by GBRs in transfected HEK293T cells. […] HEK293T cells were transiently transfected with Flag-GB1a, Flag-GB2, Gαo-RLuc, Gβ2, and Venus-Gγ2 plasmids with or without APP695. In order to ensure APP695 binding to GB1a/2 in trans a pool of HEK293T cells expressing APP695 was mixed with a pool of HEK293T cells expressing Flag-GB1a, Flag-GB2, Gαo-RLuc, Gβ2, and Venus-Gγ2. Transfected cells were seeded into 96-well microplates (Greiner Bio-One) at 100,000 cells/well. After 18 hr, cells were washed and coelenterazine h (5 µM, NanoLight Technologies, Prolume Ltd., Pinetop-Lakeside, AZ, USA) added for 5 min. […] BRET ratios were adjusted by subtracting the ratios obtained when RLuc fusion proteins were expressed alone. Each data point represents a technical quadruplicate.

GB1a/2 receptors [2] = target: T1, GB1a/2 receptors; experiment: SRE-luciferase accumulation assay (Gαqi/PLC) in HEK293T-Gαqi cells; conditions: constitutive and GABA-induced FLuc activity
GB1a/2 receptors [3] = target: T1, GB1a/2 receptors; experiment: PKA luminescence assay (R-RLuc-N / C-RLuc-C) of Gαi signaling in HEK293T cells; conditions: GABA 10 μM or CGP54626 10 μM; forskolin

Structure (SMILES): N[C@H](C(=O)O)c1cc(O)cc(O)c1 [DHPG]
- intracellular Ca^2+ mobilization (in words) (mGlu5 receptors): concentration-dependent increase in intracellular Ca^2+

Structure (SMILES): C[C@H](NC[C@H](O)CP(=O)(O)CC1CCCCC1)c1ccc(Cl)c(Cl)c1 [CGP54626]
- BRET change by receptor ligand (in words) (GB1a/2 receptors [1]): increased BRET above baseline
- block of receptor activity (in words) (GB1a/2 receptors [2]): blocked constitutive and GABA-induced receptor activity
- luminescence change by receptor ligand (in words) (GB1a/2 receptors [3]): decreased luminescence below baseline
